In brackets after ≈: the same amount, converted by molar mass. Activity calls are given as the source filed them. No cut-off for these calls is given here.
Legend:
[1] = Metabolic stability in mouse liver microsomes assessed as clearance at 1 uM incubated upto 180 mins by LC/MS-MS analysis; assay type: ADME, Microsome
[2] = Metabolic stability in human liver microsomes assessed as clearance at 1 uM incubated upto 180 mins by LC/MS-MS analysis; assay type: ADME, Microsome
[3] = molecular target: Cyclin-dependent kinase 2/cyclin E1 (Homo sapiens, UniProt P24941); test: Binding affinity to CDK2/Cyclin E1 (unknown origin) using Ulight-MBP as substrate assessed as inhibition constant preincubated for 30 mins followed by substrate addition measured after 90 mins in presence of ATP by TR-FRET assay; assay type: protein-complex assay
[4] = Selectivity ratio of Ki for CDK4/Cyclin D3 (unknown origin) to Ki for CDK2/Cyclin E1 (unknown origin)
[5] = Antiproliferative activity against human OVISE cells assessed as inhibition of cell division incubated for 16 hrs by EdU incorporation assay; assay type: functional, cell-based
[6] = Selectivity ratio of IC50 for human SK-OV-3 cells to IC50 for human OVISE cells; assay type: functional
[7] = Apparent permeability across apical to basolateral side in MDCK cells at 5 uM measured for 60 to 180 mins by LC-MS/MS analysis; assay type: ADME, cell-based, Canis lupus familiaris; settings: dog, time 60-180 min
[8] = molecular target: Mitogen-activated protein kinase 1 (Homo sapiens, UniProt P28482); test: Binding affinity to ERK2 (unknown origin) using Ulight-MBP as substrate assessed as inhibition constant preincubated for 30 mins followed by substrate addition measured after 90 mins in presence of ATP by TR-FRET assay
[9] = Half life in CD-1 mouse at 1 mg/kg, iv measured for 5 mins by LC-MS/MS analysis; assay type: ADME, organism-based; settings: in vivo; for half-life: CD-1, mouse
[10] = Volume of distribution at steady state in CD-1 mouse at 1 mg/kg, iv measured for 5 mins by LC-MS/MS analysis; assay type: ADME, organism-based; settings: in vivo; for Vd: CD-1, mouse, read-out: Vdss
[11] = Lipophilicity, logD of compound at pH 7.4; assay type: physicochemical; settings: buffer
[12] = test system: MDR1; test: Efflux ratio of apparent permeability across basolateral to apical side to apical to basolateral side in MDCK-MDR1 cells at 5 uM measured for 60 to 180 mins by LC-MS/MS analysis; assay type: ADME, cell-based, Canis lupus familiaris; settings: dog, time 60-180 min
[13] = Kinetic solubility of compound; assay type: physicochemical; settings: read-out: Kinetic_solubility
[14] = Protein binding in human plasma assessed as unbound fraction incubated for 24 hrs by HPLC analysis; assay type: ADME, cell-free
[15] = Clearance in CD-1 mouse at 1 mg/kg, iv measured for 5 mins by LC-MS/MS analysis; assay type: ADME, organism-based; settings: in vivo
[16] = AUC (infinity) in CD-1 mouse at 50 mg/kg, po measured for 24 hrs by LC-MS/MS analysis; assay type: ADME, organism-based; parameters: time 24 hrs, dose 50 mg/kg, route po; settings: in vivo
[17] = Oral bioavailability in CD-1 mouse at 50 mg/kg measured for 24 hrs by LC-MS/MS analysis; assay type: ADME, organism-based; settings: in vivo
[18] = molecular target: Cyclin-dependent kinase 1 (Homo sapiens) (UniProt P06493); test: Inhibition of CDK1 (unknown origin) at 0.1 uM
[19] = test system: OVCAR-3; test: Antitumor activity against human OVCAR-3 cells xenografted in C.B-17 SCID.bg mouse assessed as tumor growth inhibition at 125 mg/kg, po qd treated for 3 days relative to control; assay type: functional; settings: OVCAR-3, 72 h, time 3 day, read-out: TGI
[20] = test system: OVCAR-3; test: Antitumor activity against human OVCAR-3 cells xenografted in C.B-17 SCID.bg mouse assessed as tumor growth inhibition at 50 mg/kg, po bid treated for 3 days relative to control; assay type: functional; settings: OVCAR-3, 72 h, time 3 day, read-out: TGI
[21] = Selectivity ratio of Ki for ERK2 (unknown origin) to Ki for CDK2/Cyclin E1 (unknown origin)
[22] = Selectivity ratio of Ki for CDK1/Cyclin A2 (unknown origin) to Ki for CDK2/Cyclin E1 (unknown origin)
[23] = test system: OVCAR-3; test: Antitumor activity against human OVCAR-3 cells xenografted in C.B-17 SCID.bg mouse assessed as tumor growth inhibition at 80 mg/kg, po qd treated for 3 days relative to control; assay type: functional; settings: OVCAR-3, 72 h, time 3 day, read-out: TGI

Sequence of Mitogen-activated protein kinase 1 (P28482 whole entry): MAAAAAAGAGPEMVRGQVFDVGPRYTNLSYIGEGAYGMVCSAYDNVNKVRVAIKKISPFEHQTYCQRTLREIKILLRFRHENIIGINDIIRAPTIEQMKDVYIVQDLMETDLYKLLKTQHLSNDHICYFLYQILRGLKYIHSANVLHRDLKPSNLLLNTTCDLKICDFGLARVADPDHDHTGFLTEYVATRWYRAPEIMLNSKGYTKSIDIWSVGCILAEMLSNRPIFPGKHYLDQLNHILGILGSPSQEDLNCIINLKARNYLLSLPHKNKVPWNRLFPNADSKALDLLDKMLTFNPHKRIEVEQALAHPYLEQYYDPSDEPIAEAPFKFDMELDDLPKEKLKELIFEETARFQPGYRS
Sequence of Cyclin-dependent kinase 1 (Homo sapiens) (P06493 whole entry, looked up): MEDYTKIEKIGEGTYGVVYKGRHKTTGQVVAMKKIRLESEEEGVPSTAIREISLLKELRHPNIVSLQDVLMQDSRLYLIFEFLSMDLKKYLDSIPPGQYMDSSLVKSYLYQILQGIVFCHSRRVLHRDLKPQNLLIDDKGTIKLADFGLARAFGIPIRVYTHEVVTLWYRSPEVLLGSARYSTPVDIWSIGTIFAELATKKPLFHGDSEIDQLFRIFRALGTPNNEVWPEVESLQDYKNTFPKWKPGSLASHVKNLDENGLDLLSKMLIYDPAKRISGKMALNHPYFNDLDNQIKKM

SMILES | CLhep predicted at 1 µM [1] [mL/min/kg] | CLhep predicted at 1 µM [2] [mL/min/kg] | Ki [3] [nM] | Ratio Ki [4] | Papp A→B at 5 µM [7] [×10⁻⁶ cm/s] | Ratio Ki [21] | IC50 [5] [nM] | Ratio IC50 [6] | other results
O=C(N[C@H](CO)c1ccc(Cl)c(F)c1)c1ccc2cnc(NC3CCOCC3)cc2n1 |  |  | 11 |  |  |  |  |  | Ki [8]: 0.36 nM
CC1CCCCN1C(=O)c1ccc2cnc(NC3CCOCC3)cc2n1 (racemic) |  |  | 750 |  |  | 13 |  |  | 
CC[C@H](Nc1nc(NCc2cnc(C)cc2C)c2ncn(C(C)C)c2n1)[C@@H](C)O [CYC-065] |  |  |  | 57 |  |  | 1100 |  | Ratio Ki [22]: 61
O=C(c1ccc2cnc(NC3CCOCC3)cc2n1)N1CCCCC1 |  |  | 920 |  |  | 4.3 |  |  | 
CNS(=O)(=O)c1ccc(Nc2ncc3ccc(C(=O)N4C[C@H](F)[C@@H]4C)nc3n2)c(F)c1 | 54 | 19 | 2.1 | 41 | 13 |  | 360 | 36 | 
CS(=O)(=O)N1CCC(Nc2ncc3ccc(C(=O)N4CCCC4)cc3n2)CC1 | 20 | < 3.9 | 9 | 16 |  | 330 |  |  | 
COCc1cc(C(=O)Nc2cc([C@H]3CC[C@@H](OC(=O)NC(C)C)C3)[nH]n2)n(C)n1 [TEGTOCICLIB] |  |  |  |  |  |  | 160 |  | 
O=C(c1ccc2cnc(NC3CCOCC3)cc2n1)N1CCCCCC1 |  |  | 240 |  |  | 28 |  |  | 
C[C@H]1CCCN1C(=O)c1ccc2cnc(NC3CCN(S(C)(=O)=O)CC3)nc2c1 | 42 | < 3.9 | 71 | 4.2 |  | 110 |  |  | 
O=C(c1ccc2cnc(NC3CCOCC3)cc2n1)N1CCC1 |  |  | 13 |  |  | 1.8 |  |  | 
C[C@@]1(O)CCC[C@H]1n1c(=O)c(C(F)F)cc2cnc(NC3CCN(S(C)(=O)=O)CC3)nc21 [EBVACICLIB] |  |  |  |  |  |  | 46 |  | 
O=C(N[C@H](CO)c1ccc(Cl)c(F)c1)c1ccc2cnc(NC3CCOCC3)nc2n1 |  |  | 6.5 |  |  |  |  |  | Ki [8]: 0.17 nM
O=C(N[C@H](CO)c1ccc(Cl)c(F)c1)c1ccc2cnc(NC3CCOCC3)nc2c1 |  |  | 7.9 |  |  |  |  |  | Ki [8]: 0.22 nM
O=C(c1ccc2cnc(NC3CCOCC3)cc2n1)N1CCCC1 |  |  | 88 |  |  | 6.8 |  |  | 
CNS(=O)(=O)c1ccc(Nc2ncc3ccc(C(=O)N4C[C@H](F)C[C@@H]4C)cc3n2)c(C)c1 | 67 | 14 | 8.7 | 72 |  |  | 1500 | 13 | 
Cc1cc(S(C)(=O)=O)ccc1Nc1ncc2ccc(C(=O)N3CCC[C@@H]3C)cc2n1 | 58 | 13 | 17 | 42 |  | 310 |  |  | 

Further molecules by falling Ki [3], results first:

CLhep predicted at 1 µM [1] [mL/min/kg] | CLhep predicted at 1 µM [2] [mL/min/kg] | Ki [3] [nM] | Ratio Ki [4] | Papp A→B at 5 µM [7] [×10⁻⁶ cm/s] | Ratio Ki [21] | SMILES | IC50 [5] [nM] | Ratio IC50 [6] | other results
56 | 13 | 1.1 | 155 | 4.9 |  | CNS(=O)(=O)c1ccc(Nc2ncc3ccc(C(=O)N4C[C@@H](F)C[C@@H]4C)nc3n2)c(F)c1 | 260 | 38 | 
< 14 | < 3.9 | 1 | 89 | < 1 |  | CNS(=O)(=O)c1ccc(Nc2ncc3ccc(C(=O)N4C[C@@H](O)[C@@H]4C)nc3n2)c(F)c1 | 430 | 47 | 
19 | 12 | 0.63 | 270 | 1.6 |  | CNS(=O)(=O)c1ccc(Nc2ncc3ccc(C(=O)N4C[C@@H](F)C[C@@H]4C)nc3n2)c(C)c1 | 250 | 48 | 
69 | 16 | 0.49 | 155 | 12 |  | CNS(=O)(=O)c1ccc(Nc2ncc3ccc(C(=O)N4C[C@@H](F)C[C@@H]4C)cc3n2)c(C)c1 | 130 | 43 | 
53 | 11 | 0.44 | 186 | 5 |  | CNS(=O)(=O)c1ccc(Nc2ncc3ccc(C(=O)N4C[C@@H](C#N)[C@@H]4C)nc3n2)c(F)c1 | 53 | 83 | half-life [9]: 21.6 min; Vd [10]: 0.35 L/kg; logD [11]: 1.5; solubility kinetic [13]: 3 µM (≈ 1.37 µg/mL); Fu [14]: 0.31%; clearance [15]: 18 mL/min/kg; AUC(0-inf) [16]: 5.5 µM·h; bioavailability [17]: 3%
76 | 19 | 0.34 | 150 |  | 850 | CNS(=O)(=O)c1ccc(Nc2ncc3ccc(C(=O)N4CCC[C@@H]4C)cc3n2)cc1 |  |  | 
50 | 17 | 0.21 | 271 | 15 |  | CNS(=O)(=O)c1ccc(Nc2ncc3ccc(C(=O)N4C[C@@H](F)[C@@H]4C)nc3n2)c(F)c1 | 33 | 88 | 
51 | 9.4 | 0.18 | 178 | 17 |  | CNS(=O)(=O)c1ccc(Nc2ncc3ccc(C(=O)N4C[C@@H](OC)[C@@H]4C)nc3n2)c(F)c1 | 25 | 52 | half-life [9]: 19.8 min; Vd [10]: 0.78 L/kg; logD [11]: 1.7; efflux ratio at 5 µM [12]: 16; solubility kinetic [13]: 33 µM (≈ 15.2 µg/mL); Fu [14]: 0.28%; clearance [15]: 39 mL/min/kg; AUC(0-inf) [16]: 13 µM·h; bioavailability [17]: 25%; inhibition [18]: Active; inhibition in vivo at 125 mg/kg [19]: 81%; inhibition in vivo at 50 mg/kg [20]: 112%
30 | < 3.9 | 0.18 | 78 |  | 2800 | C[C@H]1CCCN1C(=O)c1ccc2cnc(NC3CCN(S(N)(=O)=O)CC3)nc2c1 |  |  | 
50 | 18 | 0.18 | 250 | 15 |  | CNS(=O)(=O)c1ccc(Nc2ncc3ccc(C(=O)N4CC[C@@H]4C)nc3n2)c(F)c1 | 38 | 50 | t1/2 ([9]; mouse, iv, 1 mg/kg, 5 min): 17.4 min; Vdss ([10]; mouse, iv, 1 mg/kg, 5 min): 1.1 L/kg; logD [11]: 1.8; efflux ratio at 5 µM [12]: 13; solubility kinetic [13]: 31 µM (≈ 13.3 µg/mL); Fu [14]: 0.26%; AUC(0-inf) [16]: 11 µM·h; bioavailability [17]: 9%; inhibition [18]: Active; inhibition in vivo at 80 mg/kg [23]: 85%
37 | < 3.9 | 0.17 | 55 |  | > 10000 | C[C@@H]1CCCN1C(=O)c1ccc2cnc(NC3CCN(S(C)(=O)=O)CC3)nc2c1 |  |  | 
75 | 18 | 0.16 | 813 |  | 4800 | CNS(=O)(=O)c1ccc(Nc2ncc3ccc(C(=O)N4CCC[C@@H]4C)cc3n2)c(C)c1 |  |  | 
< 14 | < 3.9 | 0.13 | 16 |  |  | C[C@H]1CCN1C(=O)c1ccc2cnc(NC3CCN(S(C)(=O)=O)CC3)nc2c1 |  |  | 
